Results as given in patent US6627732B1, “Glutathione derivatives and their dosage forms” (Teijin Limited, priority 1998, dated 2003).

Key:
[1] = test system: rabbit models of suppressed hematopoietic function by CP administration; assay: Recovery of neutrophil counts in rabbit models of suppressed hematopoietic function by cyclophosphamide (Example 29); type: in vivo; conditions: CP rabbits; 20 mg/kg-body weight/day, days 3 to 7; Example 4 in fat emulsion, Comparative Example 1 in HPCD solution
Description: Regarding the effect of promoting the recovery of neutrophil counts in rabbit models of suppressed hematopoietic function by cyclophosphamide (hereinafter referred to as CP) administration, the pharmaceutical composition comprising the fat emulsion containing the glutathione derivative of Example 4 of the present invention and the pharmaceutical composition of the conventional technology of Comparative Example 1 were compared.
(1) Animals used and the keeping condition: Male Japanese white rabbits, 17-week old, (Kbl:JW) purchased from Kitayama Labes Co., Ltd. were used. The animal feed (LRC4, manufactured by Oriental Yeast Co., Ltd.) and drinking water (well water treated with 0.4±0.2 ppm hypochlorous acid) were given ad libitum during the period of the experiment. The animals were each housed in a hanging-type rat cage (manufactured by Nippon Cage K.K.) and kept at a temperature of 24±2° C. and a humidity of 55±5%.
(2) Creation of rabbit models of suppressed hematopoietic function by CP administration; CP (manufactured by Wako Pure Chemicals Industries, Ltd.) was intravenously administered at 60 mg/kg-body weight/day (dosage volume was 2 ml/kg-body weight) to rabbits described in (1) on day 1 and 2 of the experiment. […] Blood was also drawn before the administration on day 1 of the experiment, and the value determined for the blood was used as the pre-administration value. […]

[2] = test system: rat models of suppressed hematopoietic function by 5-FU administration; assay: Recovery of neutrophil counts in rat models of suppressed hematopoietic function by 5-FU (Example 26); type: in vivo; conditions: 5-FU rats, days 2-10
Description: Regarding the effect of promoting the recovery of neutrophil counts in rat models of suppressed hematopoietic function by 5-fuluorouracil administration, statistical significance was compared to the control group to compare the pharmaceutical composition containing Example 4 of the present invention as an active ingredient with the pharmaceutical composition of the conventional technology of Comparative Example 1 and granulocyte colony-stimulating factor (G-CSF).
(1) Animals used and the keeping condition: Male SD rats, 6-week old, purchased from Nippon SLC were used. The animal feed (manufactured by Oriental Yeast Co., Ltd.) and drinking water (well water treated with 0.4±0.2 ppm hypochlorous acid) were given ad libitum during the period of the experiment. The animals were housed in a hanging-type rat cage (manufactured by Nippon Cage K.K.) and kept at a temperature of 24±2° C. and a humidity of 55±5%.
(2) Creation of rat models of suppressed hematopoietic function by 5-FU administration; Creation of rat models of suppressed hematopoietic function by 5-FU (Kyowa Hakko Kogyo Co. Ltd.) administration was carried out based on the method of Akamatsu et al. (Yakuri to Chiryo(Pharmacology and Therapy), 18. (Suppl. 9), 317-356 (1990)). Thus, on the first day of the experiment, 5-FU at 50 mg/kg-body weight (dosage volume is 1 ml/kg-body weight) or the same amount of physiological saline (manufactured by Fuso Pharmaceuticals Industries, Ltd.) was intraperitoneally administered to the rats described in (1). On days 4, and 7-12, blood was drawn from the jugular vein and the EDTA-2K-treated blood was obtained. The blood was used to determine the neutrophil count using a general chemistry test instrument (Technicon H-1E, manufactured by Bayer-Sankyo K.K.) and the ratio of reticulocytes using a reticulocyte determination instrument (EPICS, XL-MCL, manufactured by Coulter K.K.). Blood was also drawn on day 1 of the experiment, and the values determined for the blood were used as the pre-administration values.
In the physiological saline administration group, no changes in neutrophil count were observed throughout the experiment period, whereas in the 5-FU administration group there was a reduction in neutrophil count with the lowest value observed on day 8 of the experiment, and the neutrophil count was recovered to the value before 5-FU administration or higher on day 10 of the experiment or after. The above results confirmed that rat models of suppressed hematopoietic function can be created by a single intraperitoneal administration of 5-FU at 50 mg/kg-body weight.
(3) Evaluation of Example 4 and Comparative Example 1 in the above model; To the model described in (2), the glutathione derivative of Example 4 combined with the fat emulsion at 10 to 30 mg/kg-body weight/day or the glutathione derivative of Comparative Example 1 dissolved in a physiological saline containing 2.5% hydroxypropyl-β-cyclodextrin at 50 mg/kg-body weight/day was repeatedly administered into the tail vein for 9 days from day 2 to 10 of the experiment. The recombinant human G-CSF formulation (hereinafter referred to as G-CSF, manufactured by Chugai Pharmaceutical Co., Ltd.) as the positive control at 10 μg/kg-body weight/day and the empty fat emulsion as the negative control were administered in a similar manner. […]

rabbit liver esterase = assay: Decomposition of glutathione derivatives by rabbit liver esterase (physiological stability); type: in vitro ADME; conditions: BSA/D-PBS pH 7.4, 196-244 μg/ml
Protocol: (1) Bovine serum albumin (hereinafter referred to as BSA), Dulbecco's phosphate buffered saline (hereinafter referred to as D-PBS), swine liver esterase, and rabbit liver esterase were purchased from Sigma, 6-week old male SD rats were purchased from Nippon SLC, and 12-week old or older male Japanese white rabbits were purchased from Ichikawaya. On the day of the incubation experiment described below, blood was drawn from the animals in the presence of heparin, and plasma was separated therefrom for use. Human plasma was obtained from normal healthy males after obtaining their consent.
(2) The glutathione derivatives described in the Examples and Comparative Examples of the present invention were incubated for a fixed time in an enzyme solution having the following composition. Acetonitrile was added to the reaction mixture to inactivate the enzyme thereby to stop the reaction. The concentration of the glutathione derivatives in the deproteinized supernatant was measured by HPLC. For each time point of the esterase enzyme experiment, the mean values from two measurement or more were determined, and for the rats and rabbits the mean values of plasma samples from three individuals were determined. For some of the experiment data, changes with time of percentages relative to initial concentration of the glutathione derivative are shown in FIGS. 2 to 4.
Swine liver esterase and rabbit liver esterase experiment
30 mg-BSA/ml-D-PBS (pH 7.4): 36 to 45 parts
Swine or rabbit liver esterase/D-PBS: 4-5 parts
10 mg-glutathione derivative/ml-ethanol: one part (the final concentration in the reaction mixture is 196-244 μg/ml)

For `CCCCCCCCCCCCCCCCOC(=O)[C@@H](N)CCC(=O)N[C@@H](CSCc1ccccc1)C(=O)N[C@@H](C(=O)OCC)c1ccccc1.Cl` [Example 4, Glu(Cys(Bzl)-D-Phg-OEt)-O(Hexadecyl)hydrochloride], the “Neutrophil counts compared to the negative control group” value [1] was “statistically significant increase in neutrophil counts”, the “Neutrophil counts relative to the negative control group” value ([2]; fat emulsion 10 mg/kg-body weight/day iv) was “No changes were observed” and the “Neutrophil counts relative to the negative control group” value ([2]; fat emulsion 20 mg/kg-body weight/day iv, days 9 to 11, significance 1% to 0.1%) was “statistically significant increase”. For the same molecule, the “Neutrophil counts relative to the negative control group” value ([2]; fat emulsion 30 mg/kg-body weight/day iv, from day 8, significance 5%-0.1%) was “statistically significant increase” and the “Decomposition rate constant by rabbit liver esterase” value (rabbit liver esterase) was 0.836 10^−4/unit/min.
`CCOC(=O)[C@@H](N)CCC(=O)N[C@@H](CSCc1ccccc1)C(=O)N[C@@H](C(=O)OCC)c1ccccc1.Cl` [Comparative Example 1, Glu(Cys(Bzl)-D-Phg-O(Et))-O(Et)hydrochloride, reference compound] was tested, and the “Neutrophil counts compared to the negative control group” value [1] was “no changes were observed” and the “Neutrophil counts relative to the negative control group” value ([2]; HPCD solution 50 mg/kg-body weight/day iv, significant (5%) on day 12 only) was “no changes were observed compared to the negative control group”.
In the case of `CCCCCCCCOC(=O)[C@H](NC(=O)[C@H](CSCc1ccccc1)NC(=O)CC[C@H](N)C(=O)OCC)c1ccccc1.Cl` [Comparative Example 2, Glu(Cys(Bzl)-D-Phg-O(Octyl))-O(Et)hydrochloride, reference compound], the “Decomposition rate constant by rabbit liver esterase” value (rabbit liver esterase) is reported as 267 10^−4/unit/min.
